{"source": "patent US20240000119A1", "about": "“MEGASTIGMANE DERIVATIVE COMPOSITIONS AND METHODS FOR TASTE MODULATION” (INTERNATIONAL FLAVORS & FRAGRANCES, priority 2020, published 2024)", "key": {"[1]": {"test": "Enhancement of sucrose sweetness: flavor profile of sucrose base solution with added megastigmane derivative", "details": "0.5 ppm in sucrose base solution (4%)", "method": "(§1) A sucrose base solution (4%) (“base”) was prepared in water.\nSolutions of lauroside A, ampelopsisionoside, bridelionoside F and actinidioionoside were prepared in water (0.01%).\nThe solutions of lauroside A, ampelopsisionoside, bridelionoside F and actinidioionoside (0.01%) were added to the base, respectively, to a final concentration of 0.5 ppm. The flavor profiles of the sucrose base solution with added megastigmane derivatives are reported in the following: […]"}, "[2]": {"test": "Flavor profiles of megastigmane derivative solutions in water compared with sucrose solution", "text": "The flavor profiles of various megastigmane derivative solutions in water including lauroside A (0.5 ppm), ampelopsisionoside (0.5 ppm), bridelionoside F (0.5 ppm), actinidioionoside (0.5 ppm) and roseoside solutions (0.5 ppm) were each compared with that of sucrose solution (1.5%)."}, "[3]": {"test": "Sweetness enhancement at different concentrations: flavor profile of sucrose base solution with added roseoside", "method": "as §1\nRoseoside was added to the base to provide a series of solutions with concentrations ranging from 1 ppb to 5 ppm. The flavor profile of the sucrose solution with added roseoside is reported in the following: […]"}, "[4]": {"test": "Enhancement of mouthfeel by roseoside in water"}, "[5]": {"details": "0.5 ppm in water, compared with sucrose solution (1.5%)"}}}
{"smiles": "CC(/C=C/C1(O)C(C)(C)CC(O)CC1(C)O)OC1OC(CO)C(O)C(O)C1O", "note": "(stereo not shown) [Actinidioionoside, actinidioionoside]", "values": [{"measurement": "Flavor Profile", "setting": "[1]", "result": "Enhanced sweetness and mouthfeel"}, {"measurement": "sweet taste (flavor profile)", "setting": "[2]; [5]", "result": "none of the megastigmane derivation solutions exhibited a sweet taste"}]}
{"smiles": "CC(/C=C/C1(O)C(C)CC(=O)CC1(C)C)OC1OC(CO)C(O)C(O)C1O", "note": "(stereo not shown) [Ampelopsisionoside, ampelopsisionoside]", "values": [{"measurement": "sweet taste (flavor profile)", "setting": "[2]; [5]", "result": "none of the megastigmane derivation solutions exhibited a sweet taste"}]}
{"smiles": "CC1=C(/C=C/C(C)OC2OC(CO)C(O)C(O)C2O)C(C)(C)CC(O)C1O", "note": "(stereo not shown) [Bridelionoside F, bridelionoside F]", "values": [{"measurement": "Flavor Profile", "setting": "[1]", "result": "Enhanced sweetness and mouthfeel with para"}, {"measurement": "sweet taste (flavor profile)", "setting": "[2]; [5]", "result": "none of the megastigmane derivation solutions exhibited a sweet taste"}]}
{"smiles": "CC(/C=C/C1(O)C(C)CC(=O)CC1(C)C)OC1OC(CO)C(O)C(O)C1O", "note": "(stereo not shown) [Lauroside A, lauroside A]", "values": [{"measurement": "Flavor Profile", "setting": "[1]", "result": "Enhanced sweetness and mouthfeel, mouth coating,"}, {"measurement": "sweet taste (flavor profile)", "setting": "[2]; [5]", "result": "none of the megastigmane derivation solutions exhibited a sweet taste"}]}
{"smiles": "CC1=CC(=O)CC(C)(C)C1(O)/C=C/C(C)OC1OC(CO)C(O)C(O)C1O", "note": "(stereo not shown) [Roseoside, roseoside]", "values": [{"measurement": "Flavor Profile", "setting": "[3]; 1 ppb in sucrose base solution (4%)", "result": "Slightly enhanced sweetness and viscous mouthfeel"}, {"measurement": "Flavor Profile", "setting": "[3]; 1 ppm in sucrose base solution (4%)", "result": "Slightly enhanced and lingering sweetness, viscous"}, {"measurement": "Flavor Profile", "setting": "[3]; 5 ppm in sucrose base solution (4%)", "result": "More enhanced and lingering sweetness, slight"}, {"measurement": "Flavor Profile", "setting": "[3]; 10 ppb in sucrose base solution (4%)", "result": "Slightly enhanced and lingering sweetness, viscous"}, {"measurement": "Flavor Profile", "setting": "[3]; 100 ppb in sucrose base solution (4%)", "result": "Slightly enhanced and lingering sweetness, viscous"}, {"measurement": "sweet taste (flavor profile)", "setting": "[2]; [5]", "result": "none of the megastigmane derivation solutions exhibited a sweet taste"}, {"measurement": "Flavor Profile", "setting": "[4]; 0.5 ppm in water", "result": "Slight astringency, not sweet"}, {"measurement": "Flavor Profile", "setting": "[4]; 2 ppm in water", "result": "Slight astringency, very slight bitterness, slightly"}]}
{"smiles": "OC[C@H]1O[C@@](CO)(O[C@H]2O[C@H](CO)[C@@H](O)[C@H](O)[C@H]2O)[C@@H](O)[C@@H]1O", "note": "[sucrose, reference compound]", "values": [{"measurement": "sweet taste (flavor profile)", "setting": "[2]; sucrose solution (1.5%)", "result": "tasted slightly sweet"}]}
